Reference: US10689381B2 (priority 2017, dated 2020)
Where two headings read alike, the source gives them in different places.

How the values were obtained:
L1210 = assay: cells; assay type: cell-based, mouse
Procedure, shortened: (§1)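 Compound exposure ran 72 h at six concentrations (0–1000 nM or 0–10000 nM, duplicate) on cells plated at 30,000 cells/mL in 10% FBS DMEM. A closing 37 °C incubation took 15 min (HCT116) or 5 min (L1210).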

HCT116 = assay: cells; assay type: cell-based, human; details: for IC50: read-out: IC50 HCT116; for potency relative to vinblastine (more potent): vinblastine-sensitive cell lines
Procedure, shortened: as §1

SMILES | IC50 (L1210; Table 5) [nM] | IC50 (HCT116; Table 5) [nM] | IC50 (L1210; Table 6) [nM] | IC50 (HCT116; Table 6) [nM] | further results
CCC1(NC(=O)c2ccccn2)CC2CN(CCc3c([nH]c4ccccc34)C(C(=O)OC)(c3cc4c(cc3OC)N(C)C3C(O)(C(=O)OC)C(OC(C)=O)C5(CC)C=CCN6CCC43C65)C2)C1 (stereo not shown) [Compound 130] | 55 | 50 | – | – | –
CC[C@]1(NC(=O)c2cnccn2)C[C@H]2CN(CCc3c([nH]c4ccccc34)[C@@](C(=O)OC)(c3cc4c(cc3OC)N(C)[C@H]3[C@@](O)(C(=O)OC)[C@H](OC(C)=O)[C@]5(CC)C=CCN6CC[C@]43[C@@H]65)C2)C1 [Compound 131] | 40 | 20 | – | – | –
CC[C@]1(NC(=O)c2ccnnc2)C[C@H]2CN(CCc3c([nH]c4ccccc34)[C@@](C(=O)OC)(c3cc4c(cc3OC)N(C)[C@H]3[C@@](O)(C(=O)OC)[C@H](OC(C)=O)[C@]5(CC)C=CCN6CC[C@]43[C@@H]65)C2)C1 [Compound 132] | 30 | 9 | – | – | –
CC[C@]1(NC(=O)c2ccoc2)C[C@H]2CN(CCc3c([nH]c4ccccc34)[C@@](C(=O)OC)(c3cc4c(cc3OC)N(C)[C@H]3[C@@](O)(C(=O)OC)[C@H](OC(C)=O)[C@]5(CC)C=CCN6CC[C@]43[C@@H]65)C2)C1 [Compound 133] | 0.7 | 0.6 | – | – | activity relative to 20′ benzamide Compound 24 (better) (HCT116): roughly 2 fold; potency relative to vinblastine (more potent) (HCT116): 10 fold
CCC1(NC(=O)c2ccco2)CC2CN(CCc3c([nH]c4ccccc34)C(C(=O)OC)(c3cc4c(cc3OC)N(C)C3C(O)(C(=O)OC)C(OC(C)=O)C5(CC)C=CCN6CCC43C65)C2)C1 (stereo not shown) [Compound 134] | 0.7 | 0.7 | – | – | –
CCC1(NC(=O)c2ccsc2)CC2CN(CCc3c([nH]c4ccccc34)C(C(=O)OC)(c3cc4c(cc3OC)N(C)C3C(O)(C(=O)OC)C(OC(C)=O)C5(CC)C=CCN6CCC43C65)C2)C1 (stereo not shown) [Compound 135] | 0.5 | 0.7 | – | – | –
CCC1(NC(=O)c2cccs2)CC2CN(CCc3c([nH]c4ccccc34)C(C(=O)OC)(c3cc4c(cc3OC)N(C)C3C(O)(C(=O)OC)C(OC(C)=O)C5(CC)C=CCN6CCC43C65)C2)C1 (stereo not shown) [Compound 136] | 0.6 | 0.6 | – | – | activity relative to 20′ benzamide Compound 24 (better) (HCT116): roughly 2 fold; potency relative to vinblastine (more potent) (HCT116): 10 fold
CC[C@]1(NC(=O)c2cocn2)C[C@H]2CN(CCc3c([nH]c4ccccc34)[C@@](C(=O)OC)(c3cc4c(cc3OC)N(C)[C@H]3[C@@](O)(C(=O)OC)[C@H](OC(C)=O)[C@]5(CC)C=CCN6CC[C@]43[C@@H]65)C2)C1 [Compound 137] | 4.5 | 4 | – | – | –
CC[C@]1(NC(=O)c2cnco2)C[C@H]2CN(CCc3c([nH]c4ccccc34)[C@@](C(=O)OC)(c3cc4c(cc3OC)N(C)[C@H]3[C@@](O)(C(=O)OC)[C@H](OC(C)=O)[C@]5(CC)C=CCN6CC[C@]43[C@@H]65)C2)C1 [Compound 138] | 3.9 | 3.5 | – | – | –
CC[C@]1(NC(=O)c2cscn2)C[C@H]2CN(CCc3c([nH]c4ccccc34)[C@@](C(=O)OC)(c3cc4c(cc3OC)N(C)[C@H]3[C@@](O)(C(=O)OC)[C@H](OC(C)=O)[C@]5(CC)C=CCN6CC[C@]43[C@@H]65)C2)C1 [Compound 139] | 5.6 | 6.3 | – | – | –
CCC1(NC(=O)c2cncs2)CC2CN(CCc3c([nH]c4ccccc34)C(C(=O)OC)(c3cc4c(cc3OC)N(C)C3C(O)(C(=O)OC)C(OC(C)=O)C5(CC)C=CCN6CCC43C65)C2)C1 (stereo not shown) [Compound 140] | 1.8 | 0.6 | – | – | –
CCC1(NC(=O)c2cncn2C)CC2CN(CCc3c([nH]c4ccccc34)C(C(=O)OC)(c3cc4c(cc3OC)N(C)C3C(O)(C(=O)OC)C(OC(C)=O)C5(CC)C=CCN6CCC43C65)C2)C1 (stereo not shown) [Compound 141] | 4 | 2.2 | – | – | –
CCC1(NC(=O)c2ccon2)CC2CN(CCc3c([nH]c4ccccc34)C(C(=O)OC)(c3cc4c(cc3OC)N(C)C3C(O)(C(=O)OC)C(OC(C)=O)C5(CC)C=CCN6CCC43C65)C2)C1 (stereo not shown) [Compound 143] | 4.5 | 7 | – | – | –
CCC1(NC(=O)C2CCOCC2)CC2CN(CCc3c([nH]c4ccccc34)C(C(=O)OC)(c3cc4c(cc3OC)N(C)C3C(O)(C(=O)OC)C(OC(C)=O)C5(CC)C=CCN6CCC43C65)C2)C1 (stereo not shown) [Compound 144] | 70 | 35 | – | – | –
CCC1(NC(=O)C2CCSCC2)CC2CN(CCc3c([nH]c4ccccc34)C(C(=O)OC)(c3cc4c(cc3OC)N(C)C3C(O)(C(=O)OC)C(OC(C)=O)C5(CC)C=CCN6CCC43C65)C2)C1 (stereo not shown) [Compound 145] | 460 | 450 | – | – | –
CCC1(NC(=O)C2CCN(C(=O)OC(C)(C)C)CC2)CC2CN(CCc3c([nH]c4ccccc34)C(C(=O)OC)(c3cc4c(cc3OC)N(C)C3C(O)(C(=O)OC)C(OC(C)=O)C5(CC)C=CCN6CCC43C65)C2)C1 (stereo not shown) [Compound 147] | 50 | 45 | – | – | –
CCC1(NC(=O)C2CCN(C)CC2)CC2CN(CCc3c([nH]c4ccccc34)C(C(=O)OC)(c3cc4c(cc3OC)N(C)C3C(O)(C(=O)OC)C(OC(C)=O)C5(CC)C=CCN6CCC43C65)C2)C1 (stereo not shown) [Compound 148] | 5300 | 4400 | – | – | –

SMILES | IC50 (L1210; Table 5) [nM] | IC50 (HCT116; Table 5) [nM] | IC50 (L1210; Table 6) [nM] | IC50 (HCT116; Table 6) [nM] | further results
CCC1(NC(=O)c2ccc3cccnc3c2)CC2CN(CCc3c([nH]c4ccccc34)C(C(=O)OC)(c3cc4c(cc3OC)N(C)C3C(O)(C(=O)OC)C(OC(C)=O)C5(CC)C=CCN6CCC43C65)C2)C1 (stereo not shown) [Compound 149] | – | – | 0.6 | 0.7 | –
CCC1(NC(=O)c2ccc3ncccc3c2)CC2CN(CCc3c([nH]c4ccccc34)C(C(=O)OC)(c3cc4c(cc3OC)N(C)C3C(O)(C(=O)OC)C(OC(C)=O)C5(CC)C=CCN6CCC43C65)C2)C1 (stereo not shown) [Compound 150] | – | – | 0.6 | 0.6 | –
CCC1(NC(=O)c2cnc3ccccc3c2)CC2CN(CCc3c([nH]c4ccccc34)C(C(=O)OC)(c3cc4c(cc3OC)N(C)C3C(O)(C(=O)OC)C(OC(C)=O)C5(CC)C=CCN6CCC43C65)C2)C1 (stereo not shown) [Compound 151] | – | – | 0.7 | 0.6 | –
CCC1(NC(=O)c2ccc3ccccc3n2)CC2CN(CCc3c([nH]c4ccccc34)C(C(=O)OC)(c3cc4c(cc3OC)N(C)C3C(O)(C(=O)OC)C(OC(C)=O)C5(CC)C=CCN6CCC43C65)C2)C1 (stereo not shown) [Compound 152] | – | – | 40 | 40 | loss in activity when acyl substitution site is ortho to the basic nitrogen (HCT116; quinolyl series): about 100 fold
CCC1(NC(=O)c2ccc3ccncc3c2)CC2CN(CCc3c([nH]c4ccccc34)C(C(=O)OC)(c3cc4c(cc3OC)N(C)C3C(O)(C(=O)OC)C(OC(C)=O)C5(CC)C=CCN6CCC43C65)C2)C1 (stereo not shown) [Compound 153] | – | – | 0.4 | 0.4 | –
CCC1(NC(=O)c2ccc3cnccc3c2)CC2CN(CCc3c([nH]c4ccccc34)C(C(=O)OC)(c3cc4c(cc3OC)N(C)C3C(O)(C(=O)OC)C(OC(C)=O)C5(CC)C=CCN6CCC43C65)C2)C1 (stereo not shown) [Compound 154] | – | – | 0.6 | 0.6 | –
CC[C@]1(NC(=O)c2ccc3nccnc3c2)C[C@H]2CN(CCc3c([nH]c4ccccc34)[C@@](C(=O)OC)(c3cc4c(cc3OC)N(C)[C@H]3[C@@](O)(C(=O)OC)[C@H](OC(C)=O)[C@]5(CC)C=CCN6CC[C@]43[C@@H]65)C2)C1 [Compound 155] | – | – | 0.6 | 0.6 | –
CCC1(NC(=O)c2cnc3ccccc3n2)CC2CN(CCc3c([nH]c4ccccc34)C(C(=O)OC)(c3cc4c(cc3OC)N(C)C3C(O)(C(=O)OC)C(OC(C)=O)C5(CC)C=CCN6CCC43C65)C2)C1 (stereo not shown) [Compound 156] | – | – | 6.2 | 5.9 | –
CCC1(NC(=O)c2ccc3ccoc3c2)CC2CN(CCc3c([nH]c4ccccc34)C(C(=O)OC)(c3cc4c(cc3OC)N(C)C3C(O)(C(=O)OC)C(OC(C)=O)C5(CC)C=CCN6CCC43C65)C2)C1 (stereo not shown) [Compound 157] | – | – | 3.3 | 2.2 | –
CCC1(NC(=O)c2ccc3occc3c2)CC2CN(CCc3c([nH]c4ccccc34)C(C(=O)OC)(c3cc4c(cc3OC)N(C)C3C(O)(C(=O)OC)C(OC(C)=O)C5(CC)C=CCN6CCC43C65)C2)C1 (stereo not shown) [Compound 158] | – | – | 5 | 3.8 | –
CCC1(NC(=O)c2coc3ccccc23)CC2CN(CCc3c([nH]c4ccccc34)C(C(=O)OC)(c3cc4c(cc3OC)N(C)C3C(O)(C(=O)OC)C(OC(C)=O)C5(CC)C=CCN6CCC43C65)C2)C1 (stereo not shown) [Compound 159] | – | – | 4 | 4.6 | –
CC[C@]1(NC(=O)c2cc3ccccc3o2)C[C@H]2CN(CCc3c([nH]c4ccccc34)[C@@](C(=O)OC)(c3cc4c(cc3OC)N(C)[C@H]3[C@@](O)(C(=O)OC)[C@H](OC(C)=O)[C@]5(CC)C=CCN6CC[C@]43[C@@H]65)C2)C1 [Compound 160] | – | – | 1.8 | 1.1 | –
CCC1(NC(=O)c2ccc3c(c2)CCO3)CC2CN(CCc3c([nH]c4ccccc34)C(C(=O)OC)(c3cc4c(cc3OC)N(C)C3C(O)(C(=O)OC)C(OC(C)=O)C5(CC)C=CCN6CCC43C65)C2)C1 (stereo not shown) [Compound 161] | – | – | 0.3 | 0.25 | –
CC[C@]1(NC(=O)c2ccc3ccsc3c2)C[C@H]2CN(CCc3c([nH]c4ccccc34)[C@@](C(=O)OC)(c3cc4c(cc3OC)N(C)[C@H]3[C@@](O)(C(=O)OC)[C@H](OC(C)=O)[C@]5(CC)C=CCN6CC[C@]43[C@@H]65)C2)C1 [Compound 162] | – | – | 3.1 | 2.9 | –
CCC1(NC(=O)c2ccc3sccc3c2)CC2CN(CCc3c([nH]c4ccccc34)C(C(=O)OC)(c3cc4c(cc3OC)N(C)C3C(O)(C(=O)OC)C(OC(C)=O)C5(CC)C=CCN6CCC43C65)C2)C1 (stereo not shown) [Compound 163] | – | – | 4.2 | 4.9 | –
CC[C@]1(NC(=O)c2csc3ccccc23)C[C@H]2CN(CCc3c([nH]c4ccccc34)[C@@](C(=O)OC)(c3cc4c(cc3OC)N(C)[C@H]3[C@@](O)(C(=O)OC)[C@H](OC(C)=O)[C@]5(CC)C=CCN6CC[C@]43[C@@H]65)C2)C1 [Compound 164] | – | – | 5.2 | 5.7 | –
CC[C@]1(NC(=O)c2cc3ccccc3s2)C[C@H]2CN(CCc3c([nH]c4ccccc34)[C@@](C(=O)OC)(c3cc4c(cc3OC)N(C)[C@H]3[C@@](O)(C(=O)OC)[C@H](OC(C)=O)[C@]5(CC)C=CCN6CC[C@]43[C@@H]65)C2)C1 [Compound 165] | – | – | 3.1 | 1.9 | –
